Measurements as given in patent publication US20160272937A1, “METHODS OF GENERATING INTERMEDIATE MESODERM CELLS FROM HUMAN PLURIPOTENT STEM CELLS” (THE BRIGHAM AND WOMEN'S HOSPITAL, INC., priority 2013, published 2016).

Assays:
[1] = tested on: human pluripotent stem cells (hPSCs); experiment: Spontaneous differentiation of CHIR-induced mesendodermal cells after CHIR withdrawal, marker immunocytochemistry; format: cell-based; settings: day 4
Protocol: Mesendoderm differentiation—the media is changed to Advanced RPMI (A-RPMI, Invitrogen) supplemented with 1×L-glutamax and 1× penicillin/streptomycin and either CHIR99021 (CHIR, Stemgent), human Wnt3a (R&D systems), and/or human activin A (R&D systems) at the doses described. Definitive endoderm differentiation—cells are treated with A-RPMI+1×L-glu+1×P/S+5 μM CHIR for 24 hours, then A-RPMI+1×Lglu+1×P/S+100 ng/mL of activin A for 2-3 days. Hepatic differentiation—cells at the definitive endoderm stage are treated with A-RPMI+1×L-glu+1×P/S+1×B27 supplement (Invitrogen)+20 ng/mL BMP-4 (R&D systems)+10 ng/mL FGF2 (Invitrogen) for 5 days, then A-RPMI+1×L-glu+1×P/S+1×B27+10 ng/mL HGF for 5 days, then HCM Hepatocyte Culture Medium (Lonza) supplemented with 20 ng/mL Oncostatin M and 10 ng/mL HGF (Peprotech) for 5 days. Pancreatic differentiation—cells at the definitive endoderm stage are treated with DMEM/F12+2% FBS (Hyclone)+50 ng/mL FGF7 (R&D systems) for 2 days, then high-glucose DMEM (Mediatech)+1% B27+2 μM retinoic acid (Sigma)+0.25 μM KAAD cyclopamine (EMD Millipore)+100 ng/mL recombinant human Noggin (R&D systems) for 4 days, then high-glucose DMEM+1% B27+100 ng/mL Noggin+300 nM indolactam V (Stemgent)+1 μM ALK5 inhibitor II (Axxora) for 4 days. Anterior foregut endoderm differentiation—cells at the definitive endoderm stage are treated with DMEM/F12+1×L-glu+1×B27+200 ng/mL Noggin+10 μM SB431542 (Stemgent) for 3 days. For hindgut endoderm differentiation, cells at the definitive endoderm stage were treated with A-RPMI+1×L-glu+1×P/S+2% FBS+500 ng/mL FGF4 (R&D systems)+5 μM CHIR for 4 days. […] Intermediate mesoderm differentiation—cells are treated with A-RPMI+1×L-glu+1×P/S+5 μM CHIR for 24, 36, or 48 hours, then A-RPMI+1×L-glu+1×P/S+100 ng/mL FGF2+1 μM retinoic acid for 2-3 days. Cap mesenchyme differentiation—cells were treated with A-RPMI+13 L-glu+13 P/S+[…] CHIR for 36 hours, then A-RPMI+13 L-glu+13 P/S+100 ng/ml FGF2+1 mM retinoic acid for 36-42 hours, then A-RPMI+13L-glu+13P/S+100 ng/ml FGF-9 (R&D Systems)+10 ng/ml activin A for 3 days.
For immunofluorescence studies, cultures are washed once with PBS (Invitrogen) and fixed in 4% paraformaldehyde for 15 min at room temperature (RT). Fixed cells are then washed three times in PBS and incubated in blocking buffer (0.3% Triton X-100 (Fisher Scientific) and 5% normal donkey serum (EMD Millipore) in PBS) for 1 hour at RT.
The cells are then incubated with primary antibody overnight at 4° C. or for 2 hours at RT in antibody dilution buffer (0.3% Triton X-100 and 1% BSA (Roche) in PBS). Cells are then washed three times in PBS and incubated with Alexa Fluor 488-, 555-, or 647-conjugated secondary antibodies (1:500) (Molecular Probes) in antibody dilution buffer for 1 hour at RT. For immunostaining with Biotinylated Lotus Tetragonolobus Lectin (LTL, Vector Labs), a Streptavidin/Biotin Blocking Kit (Vector Labs) and Alexa Fluor 488- or 647-conjugated Streptavidin (Molecular Probes) were used according to manufacturer's instructions.
Nuclei can be counterstained with DAPI (Sigma). […] Immunofluorescence is visualized using an inverted fluorescence microscope (Nikon Eclipse Ti, Tokyo, Japan). Quantification is performed by counting a minimum of five random fields at 10× magnification.
To determine whether treatment with CHIR alone is sufficient to induce differentiation towards IM, the Inventors investigated the intrinsic multipotency of CHIR-induced mesendodermal cells by withdrawing CHIR from the culture media after either 24 or 48 hours of induction and allowing the cells to differentiate for another 3-4 days (FIG. 2A).

[2] = tested on: human pluripotent stem cells (hPSCs); experiment: Quantitative RT-PCR gene expression in CHIR-treated hPSCs; format: cell-based
Protocol: Total RNA is harvested and isolated from cells using the RNeasy Mini Kit (Qiagen). 1 μg RNA is used for reverse transcription with the M-MLV Reverse Transcriptase system (Promega), or 500 ng RNA is used for High Capacity cDNA Reverse Transcription Kits (Applied Biosystems). RT-PCR reactions can be run in duplicate using cDNA (diluted 1:10), 300 or 400 nM forward and reverse primers, and iQ SYBR Green Supermix (Biorad) or iTAQ SYBR Green Supermix (Biorad). Quantitative RT-PCR is performed using the iQ5 Multicolor Real-Time PCR Detection System (Biorad). Samples can be run with two technical replicates to ensure precision and accuracy. β-actin can be used as a housekeeping gene. […] In parallel, the induction of the mesendoderm state was accompanied by the loss of pluripotency as reflected by a reduction of OCT4 and NANOG mRNA (FIG. 1D). […] As cells migrate through the primitive streak during development, they express SNAIL, downregulate E-cadherin expression, upregulate N-cadherin expression, and undergo an epithelial-mesenchymal transition (“EMT”). […] This was associated with EMT with waves of cells migrating away from the periphery of differentiating colonies between 36-48 hours of differentiation (FIG. 1G), and a switch in cadherin expression from E-cadherin to N-cadherin (FIG. 1H).

hPSC-derived SIX2+ cells = experiment: Response of hPSC-derived SIX2+ cells to canonical Wnt signaling (CHIR); format: cell-based, human
Protocol: To test the competence of hPSC-derived SIX2+ cells to respond to canonical Wnt signaling, the Inventors treated cells on day 6 of differentiation with […] CHIR for 24 hours, followed by withdrawal of CHIR. […] Furthermore, hPSC-derived SIX2+ cells explanted into dissociated-reaggregated mouse embryonic kidneys formed organizing clusters of cells that expressed LTL (FIG. 7I). The Inventors therefore concluded that the ability of hPSCderived PAX2+LHX1+ cells to be differentiated into cells expressing multiple markers of kidney CMand that could form tubule like structures in response to Wnt signaling was consistent with the behavior and function of nephrogenic IM cells.

[3] = CHIR pulse 24 hours then withdrawal
[4] = 5 mM CHIR for 24 hours on day 6, read on day 8, compared with cells not treated with CHIR

SMILES: Cc1c[nH]c(-c2cnc(NCCNc3ccc(C#N)cn3)nc2-c2ccc(Cl)cc2Cl)n1 [CHIR99021]
- FOXF1+ lateral plate mesoderm cells [1, 3]: approximately 40%
- cells expressing pluripotency marker OCT4 [1, 3]: 30-40%
- appearance of OCT4+ cells ([1]; CHIR treatment 48 hours): eliminated the appearance of OCT4+ cells
- cells staining positive for FOXF1 ([1]; CHIR treatment 48 hours): greater than 80%
- cells expressing PAX6 ([1]; CHIR treatment alone): < 1%
- cells expressing SOX17 ([1]; CHIR treatment alone): < 1%
- cells with protein expression of IM marker PAX2 ([1]; CHIR treatment alone): < 1%
- cells with protein expression of paraxial mesoderm marker TBX6 ([1]; CHIR treatment alone): < 10%
- BMP-4 transcript expression ([2]; CHIR for 24 or 48 hours, day 4, compared to DMSO-treated controls): significantly upregulated
- OCT4 and NANOG mRNA ([2]; CHIR time course): reduction
- SNAI1 expression ([2]; as early as 24 hours after treatment): upregulation
- expression of primitive streak genes (BRACHY, MIXL1, EOMES, FOXA2, GSC) ([2]; within 24 hours of treatment, peak 36-48 hours, decreased by 72 hours): rapidly upregulated
- SIX2 expression (hPSC-derived SIX2+ cells; [4]): downregulation of SIX2 expression
- expression of proximal tubule marker LTL (hPSC-derived SIX2+ cells; [4]): increased expression
- cell morphology (hPSC-derived SIX2+ cells; within 24 hours of 5 mM CHIR treatment): formation of tubular-like structures
